Measured values as given in paper PMC5941726, “Evaluating Hepatobiliary Transport with ^18F-Labeled Bile Acids: The Effect of Radiolabel Position and Bile Acid Structure on Radiosynthesis and In Vitro and In Vivo Performance” (Contrast Media & Molecular Imaging, 2018).
Several values for one entry are separate records, joined by “and”; a condition that tells them apart may be missing. Equal entries are not always repeated. Where two headings read alike, the source gives them in different places.

Legend:
[1] = Stability of the tracer in mouse serum; format: in vitro ADME
Procedure: (§1) The logD-value, stability (in formulation for use and mouse serum), and identity of the tracer were assessed as described earlier. Radiochemical purity and percentage ^18F-labeling of precursor were determined by radio-TLC (silica gel TLC; with 10% MeOH in CH2Cl2 and 4 : 1 AcN : H2O, resp.).

[2] = Stability of the tracer in formulation for use; format: physicochemical
Procedure: as §1

[3] = LogD determination of the tracers; format: physicochemical
Procedure: as §1

[4] = test system: wild-type FVB-mice; assay: Dynamic PET/CT imaging of hepatobiliary transport in wild-type FVB-mice; format: in vivo, mouse; details: for Time-to-peak liver / AUC GBI (gallbladder and intestines) / AUC liver (time-activity curve) / Max% ID GBI (gallbladder and intestines) / Max% ID liver: 9 MBq i.v., 1 hour PET-scan; for AUC GBI (gallbladder and intestines) / AUC liver (time-activity curve) / Max% ID GBI (gallbladder and intestines) / Max% ID liver: normalized for 20 g mouse
Procedure: The in vivo transport characteristics of the ^18F labeled bile acids were evaluated in wild-type FVB-mice (female, 5 w). The tracer described earlier, 3β-[^18F]FCA, was also included as a reference standard. Imaging was performed with a PET/CT (FLEX Triumph II small animal PET/CT-scanner; axial field of view: 7.5 cm; 1.3 mm spatial resolution; TriFoil Imaging). For each tracer, three animals were used. The animals were housed and handled in accordance with the European Ethics Committee guidelines and the experiments were approved by the Animal Experimental Ethical Committee of Ghent University (ECD 15/69).
Food and water were provided ad libitum, but the animals were fasted overnight before a PET/CT-scan. They were anesthetized with 1.5 v : v% isoflurane in O2 and placed on a heated bed. To allow injection of the tracer, a polyethylene intravenous line was inserted in the lateral tail vein and fixed. After the animals were transferred to the scanner animal bed, a 1 hour PET-scan was started and 9 MBq tracer was injected directly after starting the scan. Following this PET-scan, 9 MBq [^18F]FDG was injected and twenty minutes later, a second PET-scan with a 20-minute acquisition time was started.
All PET-scans were obtained in list-mode and were iteratively reconstructed (50 iterations). The 1-hour scan was reconstructed in the following frames: 8 × 15 s; 16 × 30 s; 10 × 60 s; 20 × 120 s. For presentation purposes, Maximum Intensity Projection PET/CT images were generated in Amide software. The data were analyzed using Pmod software v3.405 (PMOD Technologies): Regions Of Interest (ROIs) were drawn manually over the liver, gallbladder, and intestines. On the static [^18F]FDG scan, the left ventricle was delineated and this ROI was pasted on the dynamic scan to obtain an image-derived arterial blood concentration. The uptake of radioactivity in liver, gallbladder, and intestines was expressed as a percentage of the injected dose (% ID) and normalized for the weight of a 20 g mouse. The % ID in these organs was monitored in function of time to obtain time-activity curves (TACs). Biliary clearance of the tracers was determined with equation 2 from Ghibellini et al. [14](2) Biliary clearance=cumulative amount of tracer in gallbladder&intestines/AUC blood concentration0→60 min.
The Area Under the Curve (AUC), % ID, and time-to-peak values of the TACs were determined in GraphPad Prism v3.00 Software. The obtained parameters of the different ^18F labeled bile acids were compared to 3β-[^18F]FCA-values in SPSS Statistics 23 Software. Differences between two groups were analyzed with the nonparametric Mann–Whitney U test. A p value ≤ 0.05 was considered significant.

[5] = molecular target: T1, BSEP (Homo sapiens, UniProt O95342); assay: Inhibition of [^3H]TC uptake in BSEP membrane vesicles (efflux assay)
Procedure: All dosing was performed in triplicate. The plates were suspended in a 37°C water bath 1 minute before the incubation. Incubation was started by adding 10 μL of the ATP solution or buffer solution (negative control). Each well contained a final volume of 30 μL and the plates were incubated for 10 minutes at 37°C.
The contents of each well were pipetted in a glass fiber filter plate (Multiscreen HTS plates; Merck Millipore) and washed 3 times with 200 μL ice-cold buffer solution. Finally, 100 μL 0.1 M NaOH was added: lysis of the vesicles took place for 10 minutes at room temperature. An aliquot was used for liquid scintillation counting.

[6] = molecular target: T2, OATP1B1 (Homo sapiens, UniProt Q9Y6L6)
T2 sequence (Q9Y6L6 1-691): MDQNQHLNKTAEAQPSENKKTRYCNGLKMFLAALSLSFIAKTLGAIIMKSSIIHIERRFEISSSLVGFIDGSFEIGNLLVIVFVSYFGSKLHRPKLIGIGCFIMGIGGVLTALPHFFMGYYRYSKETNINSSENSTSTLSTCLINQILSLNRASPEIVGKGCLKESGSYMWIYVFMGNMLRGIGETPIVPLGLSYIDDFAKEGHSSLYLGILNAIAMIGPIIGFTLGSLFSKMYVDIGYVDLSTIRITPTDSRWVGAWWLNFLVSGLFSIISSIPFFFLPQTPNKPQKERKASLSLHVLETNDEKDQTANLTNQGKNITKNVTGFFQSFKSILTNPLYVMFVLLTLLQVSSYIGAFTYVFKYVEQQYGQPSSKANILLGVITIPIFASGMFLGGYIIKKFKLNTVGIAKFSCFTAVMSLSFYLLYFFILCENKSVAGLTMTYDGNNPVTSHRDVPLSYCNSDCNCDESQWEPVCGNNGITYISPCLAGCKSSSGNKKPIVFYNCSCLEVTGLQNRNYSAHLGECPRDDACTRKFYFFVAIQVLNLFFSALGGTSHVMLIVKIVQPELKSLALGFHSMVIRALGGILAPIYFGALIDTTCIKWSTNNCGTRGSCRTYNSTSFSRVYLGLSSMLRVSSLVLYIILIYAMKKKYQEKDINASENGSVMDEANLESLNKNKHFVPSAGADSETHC
Procedure: Chinese Hamster Ovary (CHO) and Human Embryonic Kidney (HEK) cells expressing NTCP and OATP1B1, respectively (Solvo Biotechnologies), were used.
Cells were seeded in 24-well plates at 400,000 cells/well. […] All dosing solutions were formulated in the washing buffer and dosing was executed in triplicate. The incubation was stopped by placing the plates on ice and adding 1 mL ice-cold 1% BSA HBSS-solution. The supernatant was aspirated and the cells were washed twice with 2 mL ice-cold HBSS-solution. NaOH (250 μl, 0.1 M) was added to lyse the cells and the plates were shaken (15 minutes, 37°C). Aliquots of this lysate were subjected to liquid scintillation counting (TriCarb 2900 TR; Perkin Elmer) and protein determination with a BCA-assay (ThermoFisher Scientific).

[7] = molecular target: T3, NTCP (Homo sapiens, UniProt Q14973); assay: Inhibition of [^3H]taurocholate uptake in CHO cells expressing NTCP (competition assay); format: cell-based; details: 1 μM [^3H]TC, 15 min 37°C, Cheng-Prusoff from IC50 and Km, mean ± SD n = 3
T3 construct: host or cells: Chinese Hamster Ovary (CHO) cells
T3 sequence (Q14973 1-349): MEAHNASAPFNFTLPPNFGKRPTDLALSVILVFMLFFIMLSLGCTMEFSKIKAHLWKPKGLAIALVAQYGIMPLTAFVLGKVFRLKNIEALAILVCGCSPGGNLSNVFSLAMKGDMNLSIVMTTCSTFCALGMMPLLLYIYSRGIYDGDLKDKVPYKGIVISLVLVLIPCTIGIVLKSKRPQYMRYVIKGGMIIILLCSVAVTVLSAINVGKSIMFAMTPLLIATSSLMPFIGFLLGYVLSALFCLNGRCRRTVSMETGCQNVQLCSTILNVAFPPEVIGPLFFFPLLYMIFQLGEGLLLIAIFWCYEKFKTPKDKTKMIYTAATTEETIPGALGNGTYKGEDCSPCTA
From the text: Maintenance of these cell cultures was described earlier.

[8] = molecular target: T2, OATP1B1; parameters: host or cells: Human Embryonic Kidney (HEK) cells; method as in PMID 28273180; details: Ki calculated from IC50-values extracted from literature; cited from earlier work
[9] = molecular target: T3, NTCP; parameters: method as in PMID 28273180; details: Ki calculated from IC50-values extracted from literature; cited from earlier work
[10] = molecular target: T1, BSEP; parameters: purchased Pharmtox; method as in PMID 28273180; details: Ki calculated from IC50-values extracted from literature; cited from earlier work
[11] = wild-type mice, i.v., after 1 hour
[12] = wild-type mice, cumulative amount in gallbladder & intestines / AUC blood concentration 0-60 min, n = 3
[13] = female, FVB, mouse, in vivo, iv, 9 MBq
[14] = female, FVB, mouse, in vivo, iv, 1 h

T1 sequence (O95342 whole entry, species assumed): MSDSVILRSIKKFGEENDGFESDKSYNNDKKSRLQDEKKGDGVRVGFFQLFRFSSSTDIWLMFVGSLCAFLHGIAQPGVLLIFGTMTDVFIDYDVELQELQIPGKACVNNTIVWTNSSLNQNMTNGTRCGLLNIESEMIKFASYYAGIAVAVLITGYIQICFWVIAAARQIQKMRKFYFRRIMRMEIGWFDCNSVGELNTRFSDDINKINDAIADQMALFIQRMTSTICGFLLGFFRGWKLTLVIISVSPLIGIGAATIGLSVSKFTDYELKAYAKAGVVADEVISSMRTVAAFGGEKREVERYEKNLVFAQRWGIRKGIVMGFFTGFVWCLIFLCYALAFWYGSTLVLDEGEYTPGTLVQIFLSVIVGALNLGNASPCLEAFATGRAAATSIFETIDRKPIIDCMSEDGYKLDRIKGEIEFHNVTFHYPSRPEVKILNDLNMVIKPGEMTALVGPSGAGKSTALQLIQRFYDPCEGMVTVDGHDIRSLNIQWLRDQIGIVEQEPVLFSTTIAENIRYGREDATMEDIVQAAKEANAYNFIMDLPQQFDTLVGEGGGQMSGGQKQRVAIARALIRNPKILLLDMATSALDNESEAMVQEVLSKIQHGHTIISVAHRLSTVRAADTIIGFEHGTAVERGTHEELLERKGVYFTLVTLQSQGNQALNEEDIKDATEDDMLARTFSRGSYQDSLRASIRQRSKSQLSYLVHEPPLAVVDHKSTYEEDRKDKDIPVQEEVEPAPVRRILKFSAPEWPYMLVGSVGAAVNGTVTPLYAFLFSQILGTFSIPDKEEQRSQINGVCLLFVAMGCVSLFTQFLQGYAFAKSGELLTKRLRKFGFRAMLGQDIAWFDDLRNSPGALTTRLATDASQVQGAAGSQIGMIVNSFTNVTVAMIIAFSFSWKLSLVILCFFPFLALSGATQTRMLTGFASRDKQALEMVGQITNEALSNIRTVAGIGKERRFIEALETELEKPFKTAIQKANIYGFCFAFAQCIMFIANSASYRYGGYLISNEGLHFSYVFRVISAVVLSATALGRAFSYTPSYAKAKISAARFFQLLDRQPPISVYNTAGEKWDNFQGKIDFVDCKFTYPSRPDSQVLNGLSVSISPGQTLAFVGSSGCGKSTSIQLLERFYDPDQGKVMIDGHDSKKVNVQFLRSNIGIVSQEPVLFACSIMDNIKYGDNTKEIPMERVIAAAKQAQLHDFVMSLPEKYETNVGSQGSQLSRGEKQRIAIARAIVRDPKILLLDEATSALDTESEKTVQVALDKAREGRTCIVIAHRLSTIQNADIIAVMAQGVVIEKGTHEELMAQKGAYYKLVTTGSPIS

| Structure (SMILES) | Time-to-peak liver ([4]; wild-type mice, n = 3) | AUC GBI (gallbladder and intestines) ([4]; wild-type mice, n = 3) | AUC liver (time-activity curve) ([4]; wild-type mice, n = 3) | Max% ID GBI (gallbladder and intestines) ([4]; wild-type mice, n = 3) | Max% ID liver ([4]; wild-type mice, n = 3) | Organ uptake after intravenous injection ([4]; wild-type mice, PET) | Injected activity found in gallbladder and intestines after 1 hour [4, 11] | Biliary clearance [4, 12] | Stability in mouse serum [1] | Stability in its formulation [2] | logD [3] | Biliary clearance [4, 13] | Injected activity found in gallbladder and intestines after 1 hour [4, 14] | Organ uptake after intravenous injection ([4]; mouse, in vivo, iv) | other results |
| --- | --- | --- | --- | --- | --- | --- | --- | --- | --- | --- | --- | --- | --- | --- | --- |
| C[C@H](CCC(=O)O)[C@H]1CC[C@H]2[C@@H]3[C@H](O)C[C@@H]4C[C@H]([18F])CC[C@]4(C)[C@H]3C[C@H](O)[C@]12C [3α-[^18F]FCA, 3α-[^18F]fluorocholic acid] | 3.33 ± 0.62 min and 3.33 ± 0.62^∗ min | 4184 ± 109^∗ % ID·min | 1065 ± 171^∗ % ID·min | 88.70 ± 2.38% | 58.58 ± 3.19% | exclusive hepatic uptake | approx. 80% | 0.49 ± 0.10 mL/min | – | – | – | – | – | – | Stability in mouse serum ([1]; mouse serum): stable; Stability in its formulation ([2]; formulation for use (phosphate buffered saline)): stable; logD ([3]; n = 3, mean ± SD, read-out: LogD): 0.92 ± 0.17 |
| C[C@H](CCC(=O)O)[C@H]1CC[C@H]2[C@@H]3[C@H](O)C[C@@H]4C[C@H](F)CC[C@]4(C)[C@H]3C[C@H](O)[C@]12C [3αFCA, 3α-fluorocholic acid] | – | – | – | – | – | – | – | – | – | – | – | – | – | – | Ki [5]: 199 ± 39.5 µM; Ki [6]: 5.22 ± 0.56 µM; Ki [7]: 2.53 ± 0.76 µM |
| C[C@H](CCC(=O)O)[C@H]1CC[C@H]2[C@@H]3[C@H](O)C[C@@H]4C[C@@H]([18F])CC[C@]4(C)[C@H]3C[C@H](O)[C@]12C [3β-[^18F]FCA, 3β-[^18F]fluorocholic acid, reference compound] | 5.33 ± 0.24 min | 3499 ± 340 % ID·min | 1785 ± 194 % ID·min | 83.44 ± 9.27% | 63.80 ± 2.61% | exclusive hepatic uptake | approx. 80% | 0.46 ± 0.08 mL/min | – | – | – | – | – | – | – |
| C[C@H](CCC(=O)O)[C@H]1CC[C@H]2[C@@H]3[C@H](O)C[C@@H]4C[C@@H]([18F])CC[C@]4(C)[C@H]3CC[C@]12C [3β-[^18F]FCDCA, 3β-[^18F]fluorochenodeoxycholic acid] | – | – | – | – | – | – | – | – | stable | stable | 1.42 ± 0.16 | 0.18 ± 0.04^∗ mL/min | 60% | exclusive hepatic uptake | – |
| C[C@H](CCC(=O)NCC(=O)O)[C@H]1CC[C@H]2[C@@H]3[C@H](O)C[C@@H]4C[C@@H]([18F])CC[C@]4(C)[C@H]3C[C@H](O)[C@]12C [3β-[^18F]FGCA, 3β-[^18F]fluoroglycocholic acid] | – | – | – | – | – | – | – | – | stable | stable | 0.011 ± 0.037 | 0.47 ± 0.07 mL/min | approx. 80% | exclusive hepatic uptake | – |
| C[C@H](CCC(=O)O)[C@H]1CC[C@H]2[C@@H]3[C@H](O)C[C@@H]4C[C@@H](F)CC[C@]4(C)[C@H]3C[C@H](O)[C@]12C [3βFCA] | – | – | – | – | – | – | – | – | – | – | – | – | – | – | Ki [8]: 9.67 ± 0.83 µM; Ki [9]: 6.18 ± 0.59 µM; Ki [10]: 216 ± 53 µM |
